Test results published in paper PMC9586306 (Proceedings of the National Academy of Sciences of the …, 2022).

Legend:
[1] = target: IBV NA (B/Singapore/222/1979) (Influenza B virus, UniProt P16203); type: biochemical, Influenza B virus B/Singapore/222/1979; settings: read-out: IC50 ± SEM
[2] = target: A/California/04/2009 (H1N1) neuraminidase (09N1) (Influenza A virus (A/California/04/2009(H1N1)), UniProt C3W5S3); type: biochemical; settings: read-out: IC50 ± SEM

Sequence of IBV NA (B/Singapore/222/1979) (P16203 77-466 limits assumed): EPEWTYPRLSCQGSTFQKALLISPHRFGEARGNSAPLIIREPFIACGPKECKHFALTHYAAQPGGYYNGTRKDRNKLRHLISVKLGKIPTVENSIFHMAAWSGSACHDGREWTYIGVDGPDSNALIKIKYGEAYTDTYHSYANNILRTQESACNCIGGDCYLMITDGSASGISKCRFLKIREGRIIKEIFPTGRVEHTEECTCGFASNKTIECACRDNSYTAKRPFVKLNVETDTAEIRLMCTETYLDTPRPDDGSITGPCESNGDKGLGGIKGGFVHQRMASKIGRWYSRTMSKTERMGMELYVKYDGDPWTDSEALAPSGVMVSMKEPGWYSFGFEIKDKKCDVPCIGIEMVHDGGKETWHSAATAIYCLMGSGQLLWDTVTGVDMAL

CCC(CC)[C@H](NC(C)=O)[C@@H]1[C@H](O)[C@@H](C(=O)O)C[C@H]1N=C(N)N [Peramivir, peramivir]
IC50 [1]: 16.9 ± 1.94 nM
IC50 [2]: 0.45 ± 0.08 nM
